Experimental findings from patent US7049312B1, “Benzothiazinone and benzoxazinone compounds” (Abbott GmbH & Co. KG, priority 1999, dated 2006) are described below.

As for `CC(=O)OCCCCn1cc(C=C2Sc3ccccc3NC2=O)c2cccnc21` [Example 131, 2-{[1-(4-Acetoxybutyl)-7-azaindol-3-yl]methylene}-2H-1,4-benzothiazine-3(4H)-one], the melting point lay in the range of 158 to 160 °C.
Under `S=C1Nc2ccccc2SC1=Cc1c[nH]c2ccccc12` [Example 268, 2-[(Indol-3-yl)methylene]-2H-1,4-benzothiazine-3(4H)-thione] stands 253 to 256 °C.
In turn, `S=C1Nc2ccccc2SC1=Cc1c[nH]c2ncccc12` [Example 269, 2-[(7-azaindol-3-yl)methylene]-2H-1,4-benzothiazine-3(4H)-thione] had a melting point of 287 to 290 °C.
For `S=C1Nc2ccccc2SC1=Cc1ccc[nH]1` [Example 270, 2-[(pyrrol-2-yl)methylene]-2H-1,4-benzothiazine-3(4H)-thione], the melting point lay in the range of 205 to 206 °C.
Under `S=C1Nc2ccccc2OC1=Cc1ccc[nH]1` [Example 271, 2-[(Pyrrol-2-yl)methylene]-2H-1,4-benzoxazin-3 (4H)-thione] stands 241 to 243 °C.
Next, `S=C1Nc2ccccc2OC1=Cc1c[nH]c2ccccc12` [Example 272, 2-[(indol-3-yl)methylene]-2H-1,4-benzoxazin-3(4H)-thione]: 275 to 277 °C.
`ON=C1Nc2ccccc2SC1=Cc1ccc[nH]1` [Example 273, 3-Hydroxyimino-2-[(pyrrol-2-yl)methylene]-2H-1,4-benzothiazine] yielded a melting point of 204 to 205 °C.
Compound `CC(=O)ON=C1Nc2ccccc2SC1=Cc1ccc[nH]1` [Example 276, 3-Acetyloxyimino-2-[(pyrrol-2-yl)methylene]-2H-1,4-benzothiazine] showed a melting point of 182 to 185 °C.
Next, `O=C(ON=C1Nc2ccccc2SC1=Cc1ccc[nH]1)c1ccccc1` [Example 277, 3-Benzoyloxyimino-2-[(pyrrol-2-yl)methylene]-2H-1,4-benzothiazine]: 188 to 189 °C; `ON=C1Nc2ccccc2OC1=Cc1ccc[nH]1` [Example 278, 3-Hydroxyimino-2-[(pyrrol-2-yl)methylene]-2H-1,4-benzoxazine]: 192 to 194 °C; `O=C1Nc2ccccc2S(=O)(=O)C1=Cc1c[nH]c2ccccc12` [Example 280, 1,1-Dioxo-2-[(indol-3-yl)methylene]-2H-1,4-benzothiazin-3(4H)-one]: 318 to 320 °C.
With `COc1ccc(NC=C2C(=O)Nc3ccccc3S2(=O)=O)cc1` [Example 285, 1,1 Dioxo-2-[(4-methoxyphenylamino)methylene]-2H-1,4-benzothiazin-3(4H)-one], the melting point fell in the range of 250 to 251 °C.
Compound `O=C1Nc2ncccc2OC1=Cc1ccccc1` [Example 297, 2-(Phenylmethylene)-2H-pyrido[3,2-b][1,4]oxazin-3(4H)-one] registered a melting point of 223 to 225 °C.

As usually defined, the melting point is the temperature, or range, at which the solid turns liquid.
